Source: ChEMBL document CHEMBL1201862, “PubChem BioAssay data set” (2004)
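A five-concentration, 48-hour dose response in 96-well plates underlies each endpoint, interpolated linearly between surrounding concentrations. GI50 marks 50% less growth.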 Active and inactive are the calls of the source. No stated cut-off is given here; in the data, active = GI50 up to about 1.1 µM and inactive = higher.

Columns and labels:
Assay in all cases: inhibition of tumour cell growth, NCI panel, 48 h
[1] = test system: HL-60
[2] = test system: SNB-19
[3] = test system: SN12C
[4] = test system: BT-549
[5] = test system: A549
[6] = test system: OVCAR-4
[7] = test system: RPMI-8226
[8] = test system: CAKI-1
[9] = test system: OVCAR-3
[10] = test system: MDA-MB-231
[11] = test system: MDA-MB-435
[12] = test system: MCF7
[13] = test system: MDA-N
[14] = test system: UO-31
[15] = test system: NCI-H226
[16] = test system: 786-0
[17] = test system: EKVX
[18] = test system: T47D
[19] = test system: HOP-62
[20] = test system: SR

Compound: O=C1Oc2ccccc2C(=O)/C1=C/N1C(=O)N/C(=C\c2ccccc2O)C1=O
- GI50 [1]: 60.3 µM (inactive)
- GI50 [2]: > 100 µM (inactive)
- GI50 [3]: 53.6 µM (inactive)
- GI50 [4]: 45.4 µM (inactive)
- GI50 [5]: 58.9 µM (inactive)
- GI50 [6]: 55.3 µM (inactive)
- GI50 [7]: 43 µM (inactive)
- GI50 [8]: 79.4 µM (inactive)
- GI50 [9]: 32.7 µM (inactive)
- GI50 [10]: 36.9 µM (inactive)
- GI50 [11]: > 79.3 µM (inactive)
- GI50 [12]: 61.1 µM (inactive)
- GI50 [13]: 60.7 µM (inactive)
- GI50 [14]: 39 µM (inactive)
- GI50 [15]: 81.1 µM (inactive)
- GI50 [16]: 68.7 µM (inactive)
- GI50 [17]: > 67.8 µM (inactive)
- GI50 [18]: 34.2 µM (inactive)
- GI50 [19]: 71.3 µM (inactive)
- GI50 [20]: 32.3 µM (inactive)

Compound: CC(=O)NN/C=N/C(C#N)=C(\N)C#N
- GI50 [1]: > 100 µM (inactive)
- GI50 [2]: > 100 µM (inactive)
- GI50 [3]: > 100 µM (inactive)
- GI50 [4]: > 100 µM (inactive)
- GI50 [5]: > 100 µM (inactive)
- GI50 [6]: > 100 µM (inactive)
- GI50 [7]: > 100 µM (inactive)
- GI50 [8]: > 100 µM (inactive)
- GI50 [9]: > 100 µM (inactive)
- GI50 [10]: > 100 µM (inactive)
- GI50 [11]: > 100 µM (inactive)
- GI50 [12]: > 100 µM (inactive)
- GI50 [13]: > 100 µM (inactive)
- GI50 [14]: > 100 µM (inactive)
- GI50 [15]: > 100 µM (inactive)
- GI50 [16]: > 100 µM (inactive)
- GI50 [17]: > 100 µM (inactive)
- GI50 [18]: > 100 µM (inactive)
- GI50 [19]: > 100 µM (inactive)
- GI50 [20]: > 100 µM (inactive)

Compound: CC(=O)C(=[N+]=[N-])C(=O)OC(C)(C)C#N
- GI50 [1]: > 10 µM (inactive)
- GI50 [2]: > 10 µM (inactive)
- GI50 [3]: > 10 µM (inactive)
- GI50 [4]: > 10 µM (inactive)
- GI50 [5]: > 10 µM (inactive)
- GI50 [6]: > 10 µM (inactive)
- GI50 [7]: > 10 µM (inactive)
- GI50 [8]: > 10 µM (inactive)
- GI50 [9]: > 10 µM (inactive)
- GI50 [10]: > 10 µM (inactive)
- GI50 [11]: > 10 µM (inactive)
- GI50 [12]: > 10 µM (inactive)
- GI50 [13]: > 10 µM (inactive)
- GI50 [14]: > 10 µM (inactive)
- GI50 [15]: > 10 µM (inactive)
- GI50 [16]: > 10 µM (inactive)
- GI50 [17]: > 10 µM (inactive)
- GI50 [18]: > 10 µM (inactive)
- GI50 [19]: > 10 µM (inactive)
- GI50 [20]: > 10 µM (inactive)

Compound: O=C1C2=Nc3ccccc3C(O)N2c2ccccc21 (stereo not given)
- GI50 [1]: 2.37 µM (inactive)
- GI50 [2]: 74.1 µM (inactive)
- GI50 [3]: 27.2 µM (inactive)
- GI50 [4]: 28.4 µM (inactive)
- GI50 [5]: 32.8 µM (inactive)
- GI50 [6]: > 100 µM (inactive)
- GI50 [7]: 53.8 µM (inactive)
- GI50 [8]: 48.4 µM (inactive)
- GI50 [9]: 11.6 µM (inactive)
- GI50 [10]: 14.9 µM (inactive)
- GI50 [11]: 2.56 µM (inactive)
- GI50 [12]: 11.1 µM (inactive)
- GI50 [13]: 1.84 µM (inactive)
- GI50 [14]: 46.8 µM (inactive)
- GI50 [15]: 27.8 µM (inactive)
- GI50 [16]: 36.6 µM (inactive)
- GI50 [17]: 57.9 µM (inactive)
- GI50 [18]: 37.6 µM (inactive)
- GI50 [19]: 65.3 µM (inactive)
- GI50 [20]: 86.5 µM (inactive)

Compound: CC(=O)O[C@@H]1C[C@]2(C(=O)c3ccccc3)C(=O)C(=O)S[C@]12c1ccccc1
- GI50 [1]: 0.225 µM (active)
- GI50 [2]: 39.8 µM (inactive)
- GI50 [3]: 35.8 µM (inactive)
- GI50 [4]: 44.1 µM (inactive)
- GI50 [5]: 55.8 µM (inactive)
- GI50 [6]: 56.1 µM (inactive)
- GI50 [7]: 30.4 µM (inactive)
- GI50 [8]: 42.9 µM (inactive)
- GI50 [9]: 69.8 µM (inactive)
- GI50 [10]: 58.1 µM (inactive)
- GI50 [11]: 29.2 µM (inactive)
- GI50 [12]: 30 µM (inactive)
- GI50 [13]: 30 µM (inactive)
- GI50 [14]: 42.8 µM (inactive)
- GI50 [15]: 52.6 µM (inactive)
- GI50 [16]: 35.5 µM (inactive)
- GI50 [17]: 52.2 µM (inactive)
- GI50 [18]: 28.3 µM (inactive)
- GI50 [19]: 61 µM (inactive)
- GI50 [20]: 32.9 µM (inactive)

Compound: N#CC(C#N)[C@@H]1CCC=C(Sc2ccccc2)[C@H]1Sc1ccccc1
- GI50 [1]: 2.01 µM (inactive)
- GI50 [2]: 12.8 µM (inactive)
- GI50 [3]: 2.8 µM (inactive)
- GI50 [4]: 3.23 µM (inactive)
- GI50 [5]: 3.28 µM (inactive)
- GI50 [6]: 4.6 µM (inactive)
- GI50 [7]: 2.28 µM (inactive)
- GI50 [8]: 2.65 µM (inactive)
- GI50 [9]: 3.44 µM (inactive)
- GI50 [10]: 4.05 µM (inactive)
- GI50 [11]: 1.26 µM (inactive)
- GI50 [12]: 2.95 µM (inactive)
- GI50 [13]: 1.32 µM (inactive)
- GI50 [14]: 5.31 µM (inactive)
- GI50 [15]: 1.72 µM (inactive)
- GI50 [16]: 2.17 µM (inactive)
- GI50 [17]: 4.54 µM (inactive)
- GI50 [18]: 1.45 µM (inactive)
- GI50 [19]: 3.2 µM (inactive)
- GI50 [20]: 1.97 µM (inactive)

Compound: Cc1nc(NC(C)(CO)CO)nc(N/N=C/c2ccc(Cl)cc2)c1C(=O)Nc1ccc(Cl)cc1
- GI50 [1]: > 100 µM (inactive)
- GI50 [2]: > 100 µM (inactive)
- GI50 [3]: > 100 µM (inactive)
- GI50 [4]: > 100 µM (inactive)
- GI50 [5]: 77.3 µM (inactive)
- GI50 [6]: > 100 µM (inactive)
- GI50 [7]: > 100 µM (inactive)
- GI50 [8]: > 100 µM (inactive)
- GI50 [9]: > 100 µM (inactive)
- GI50 [10]: > 100 µM (inactive)
- GI50 [11]: > 100 µM (inactive)
- GI50 [12]: 51.1 µM (inactive)
- GI50 [13]: > 100 µM (inactive)
- GI50 [14]: > 100 µM (inactive)
- GI50 [15]: > 100 µM (inactive)
- GI50 [16]: > 100 µM (inactive)
- GI50 [17]: > 100 µM (inactive)
- GI50 [18]: > 100 µM (inactive)
- GI50 [19]: > 100 µM (inactive)
- GI50 [20]: > 10 µM (inactive)

Compound: O=C(O)C1OC(n2cc(F)c(=O)[nH]c2=O)CC1O (stereo not given)
- GI50 [1]: 30.8 µM (inactive)
- GI50 [2]: 52.5 µM (inactive)
- GI50 [3]: 17.7 µM (inactive)
- GI50 [4]: 99.1 µM (inactive)
- GI50 [5]: 2.97 µM (inactive)
- GI50 [6]: > 100 µM (inactive)
- GI50 [7]: 61.7 µM (inactive)
- GI50 [8]: > 39.5 µM (inactive)
- GI50 [9]: 60.1 µM (inactive)
- GI50 [10]: > 39.1 µM (inactive)
- GI50 [11]: > 93.1 µM (inactive)
- GI50 [12]: 0.9 µM (active)
- GI50 [13]: > 97.3 µM (inactive)
- GI50 [14]: 18.6 µM (inactive)
- GI50 [15]: > 83.9 µM (inactive)
- GI50 [16]: 15.6 µM (inactive)
- GI50 [17]: > 82.8 µM (inactive)
- GI50 [18]: > 100 µM (inactive)
- GI50 [19]: 5.22 µM (inactive)
- GI50 [20]: 6.11 µM (inactive)

Compound: COc1ccc(-c2oc3c(OC)c(OC)c(OC)c(OC)c3c(=O)c2OC)cc1OC [3,5,6,7,8,3',4'-HEPTAMETHOXYFLAVONE]
- GI50 [1]: 14.1 µM (inactive)
- GI50 [2]: > 100 µM (inactive)
- GI50 [3]: 93.3 µM (inactive)
- GI50 [4]: 50.7 µM (inactive)
- GI50 [5]: 70.6 µM (inactive)
- GI50 [6]: 47.2 µM (inactive)
- GI50 [7]: 12.4 µM (inactive)
- GI50 [8]: 53.8 µM (inactive)
- GI50 [9]: 18.7 µM (inactive)
- GI50 [10]: 59.7 µM (inactive)
- GI50 [11]: 15.8 µM (inactive)
- GI50 [12]: 21.3 µM (inactive)
- GI50 [13]: 27.6 µM (inactive)
- GI50 [14]: 23.6 µM (inactive)
- GI50 [15]: 48.9 µM (inactive)
- GI50 [16]: 24.5 µM (inactive)
- GI50 [17]: 55.7 µM (inactive)
- GI50 [18]: 22.4 µM (inactive)
- GI50 [19]: 14.5 µM (inactive)
- GI50 [20]: 19.1 µM (inactive)
